Laboratory results as given in ChEMBL document CHEMBL4819016, “2-Propargylamino-naphthoquinone derivatives as multipotent agents for the treatment of Alzheimer's disease” (Eur J Med Chem, 2021).
Calls of active or inactive are those of the source. No cut-off for these calls is given here.

Tests used:
[1] = target: Amyloid-beta precursor protein (Homo sapiens) (UniProt P05067); assay: Inhibition of HFIP-pretreated amyloid beta (1 to 42) (unknown origin) self aggregation at 50 uM measured every 10 mins for 72 hrs by Thioflavin T flourimetric assay relative to control
Sequence of Amyloid-beta precursor protein (Homo sapiens) (P05067 whole entry): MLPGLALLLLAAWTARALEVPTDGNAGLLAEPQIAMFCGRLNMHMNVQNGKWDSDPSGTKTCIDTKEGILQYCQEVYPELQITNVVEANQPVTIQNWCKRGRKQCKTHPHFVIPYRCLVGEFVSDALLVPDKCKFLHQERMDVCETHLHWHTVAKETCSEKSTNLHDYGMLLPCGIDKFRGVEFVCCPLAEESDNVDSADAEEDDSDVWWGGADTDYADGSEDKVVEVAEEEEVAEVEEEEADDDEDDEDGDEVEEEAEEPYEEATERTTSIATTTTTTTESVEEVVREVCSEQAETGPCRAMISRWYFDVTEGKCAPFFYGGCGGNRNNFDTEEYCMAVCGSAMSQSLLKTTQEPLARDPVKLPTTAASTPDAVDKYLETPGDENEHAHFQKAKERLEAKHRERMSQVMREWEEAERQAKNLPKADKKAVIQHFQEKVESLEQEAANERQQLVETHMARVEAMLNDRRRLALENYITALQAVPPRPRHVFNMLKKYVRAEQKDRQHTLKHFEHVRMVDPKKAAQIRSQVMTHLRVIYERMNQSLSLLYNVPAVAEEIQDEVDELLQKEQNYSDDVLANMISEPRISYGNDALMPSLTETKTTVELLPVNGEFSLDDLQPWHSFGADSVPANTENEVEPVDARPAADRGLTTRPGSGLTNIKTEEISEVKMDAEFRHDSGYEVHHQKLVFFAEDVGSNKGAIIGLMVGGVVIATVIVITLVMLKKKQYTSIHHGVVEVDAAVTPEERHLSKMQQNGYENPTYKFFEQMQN

[2] = Permeability of compound at pH 7.4 measured after 6 hrs by PAMPA assay
SH-SY5Y = assay: Cytotoxicity against human SH-SY5Y cells measured after 24 hrs by MTT assay; format: functional, cell-based
[3] = Cytotoxicity against mouse SIM-A9 cells measured after 24 hrs by MTT assay; format: functional, cell-based; settings: SIM-A9, 24 h
[4] = Cytotoxicity against mouse SIM-A9 cells assessed as non-toxic concentration measured after 24 hrs by MTT assay; format: functional
[5] = Anti-inflammatory activity in mouse SIM-A9 cells assessed as decrease in LPS-induced IL-6 production at 8 uM preincubated for 1 hr followed by stimulation with LPS and measured after 23 hrs by ELISA assay; format: functional; design: scale not given: the % may be the effect or the level left; settings: time 24 hrs
[6] = Anti-inflammatory activity in mouse SIM-A9 cells assessed as decrease in LPS-induced IL-6 production at 4 uM preincubated for 1 hr followed by stimulation with LPS and measured after 23 hrs by ELISA assay; format: functional; design: scale not given: the % may be the effect or the level left; settings: time 24 hrs
[7] = Anti-inflammatory activity in mouse SIM-A9 cells assessed as decrease in LPS-induced IL-6 production at 2 uM preincubated for 1 hr followed by stimulation with LPS and measured after 23 hrs by ELISA assay; format: functional; design: scale not given: the % may be the effect or the level left; settings: time 24 hrs
[8] = Anti-inflammatory activity in mouse SIM-A9 cells assessed as decrease in LPS-induced TNF-alpha production at 8 uM preincubated for 1 hr followed by stimulation with LPS and measured after 23 hrs by ELISA assay; format: functional; design: scale not given: the % may be the effect or the level left; settings: time 24 hrs
[9] = Anti-inflammatory activity in mouse SIM-A9 cells assessed as decrease in LPS-induced TNF-alpha production at 4 uM preincubated for 1 hr followed by stimulation with LPS and measured after 23 hrs by ELISA assay; format: functional; design: scale not given: the % may be the effect or the level left; settings: time 24 hrs
[10] = Anti-inflammatory activity in mouse SIM-A9 cells assessed as decrease in LPS-induced TNF-alpha production at 2 uM preincubated for 1 hr followed by stimulation with LPS and measured after 23 hrs by ELISA assay; format: functional; design: scale not given: the % may be the effect or the level left; settings: time 24 hrs
[11] = Toxicity in human SH-SY5Y cells assessed by intracellular dehydrogenase activity at 10 uM measured after 24 hrs by WST-1 assay; format: cell-based; settings: read-out: Activity
[12] = Toxicity in human SH-SY5Y cells assessed by intracellular dehydrogenase activity at 100 uM measured after 24 hrs by WST-1 assay; format: cell-based; settings: read-out: Activity
[13] = Toxicity in human SH-SY5Y cells assessed by glutathione depletion at 10 uM measured after 24 hrs by monochlorobimane based plate reader assay; format: cell-based
[14] = Toxicity in human SH-SY5Y cells assessed by changes in mitochondrial membrane potential at 0.1 to 100 uM measured after 24 hrs by JC-1 probe based fluorescence reader assay; format: cell-based; settings: dose 0.1-100 µM
[15] = Toxicity in human SH-SY5Y cells assessed as change in respiratory states by measuring ROUTINE at 0.1 to 100 uM measured after 24 hrs by respirometer; format: cell-based; settings: dose 0.1-100 µM
[16] = Metal chelating activity assessed as compound-Cu2+ complex formation measured by EPR-spectroscopy; format: functional
[17] = Radical scavenging activity of compound measured after 15 mins by ABTS radical scavenging activity in relative to clioquinol; format: functional
[18] = Radical scavenging activity of compound in presence of Cu+2 measured after 15 mins by ABTS radical scavenging activity in relative to clioquinol; format: functional
[19] = Toxicity in human SH-SY5Y cells assessed as change in respiratory states by measuring LEAK at 0.1 to 100 uM measured after 24 hrs by respirometer; format: cell-based; settings: dose 0.1-100 µM
[20] = Toxicity in human SH-SY5Y cells assessed as change in respiratory states by measuring ETS at 0.1 to 100 uM measured after 24 hrs by respirometer; format: cell-based; settings: dose 0.1-100 µM
[21] = Toxicity in human SH-SY5Y cells assessed as change in respiratory states by measuring ROX at 0.1 to 100 uM measured after 24 hrs by respirometer; format: cell-based; settings: dose 0.1-100 µM
[22] = target: T1, Amine oxidase [flavin-containing] A (Homo sapiens, UniProt P21397); assay: Inhibition of human MAO-A preincubated for 5 mins followed by addition of Kynuramine substrate and measured after 30 mins by plate reader method
T1 sequence (P21397 whole entry): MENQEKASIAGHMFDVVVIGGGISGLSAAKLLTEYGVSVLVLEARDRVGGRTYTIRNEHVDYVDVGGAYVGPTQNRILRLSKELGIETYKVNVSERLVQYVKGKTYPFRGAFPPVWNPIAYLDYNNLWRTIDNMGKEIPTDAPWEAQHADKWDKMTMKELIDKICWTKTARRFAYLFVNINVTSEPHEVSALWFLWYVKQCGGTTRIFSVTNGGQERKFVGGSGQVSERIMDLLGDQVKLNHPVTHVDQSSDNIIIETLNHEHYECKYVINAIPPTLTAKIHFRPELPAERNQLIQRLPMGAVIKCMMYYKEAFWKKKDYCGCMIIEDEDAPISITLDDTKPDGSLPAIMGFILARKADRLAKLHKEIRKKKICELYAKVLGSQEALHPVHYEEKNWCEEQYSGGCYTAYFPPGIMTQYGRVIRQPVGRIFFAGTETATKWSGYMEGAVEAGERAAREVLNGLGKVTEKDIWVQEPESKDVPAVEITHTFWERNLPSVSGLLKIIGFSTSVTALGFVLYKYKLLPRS

[23] = target: T2, Amine oxidase [flavin-containing] B (Homo sapiens, UniProt P27338); assay: Inhibition of human MAO-B preincubated for 5 mins followed by addition of Kynuramine substrate and measured after 30 mins by plate reader method
T2 sequence (P27338 whole entry): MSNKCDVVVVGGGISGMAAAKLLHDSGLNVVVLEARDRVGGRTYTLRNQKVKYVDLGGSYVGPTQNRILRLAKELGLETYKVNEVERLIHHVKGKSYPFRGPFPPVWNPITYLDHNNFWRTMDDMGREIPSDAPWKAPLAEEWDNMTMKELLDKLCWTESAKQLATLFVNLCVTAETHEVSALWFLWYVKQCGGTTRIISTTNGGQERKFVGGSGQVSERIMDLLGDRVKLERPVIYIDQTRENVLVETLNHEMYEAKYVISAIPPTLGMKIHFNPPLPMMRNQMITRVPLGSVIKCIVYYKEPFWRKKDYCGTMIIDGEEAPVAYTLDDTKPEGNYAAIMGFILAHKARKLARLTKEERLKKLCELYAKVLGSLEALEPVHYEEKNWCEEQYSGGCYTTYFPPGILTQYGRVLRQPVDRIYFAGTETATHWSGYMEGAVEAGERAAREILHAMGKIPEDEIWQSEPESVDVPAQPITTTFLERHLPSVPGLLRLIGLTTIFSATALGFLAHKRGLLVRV

Homo sapiens = organism: Homo sapiens; assay: Selectivity index, ratio of IC50 for human MAO-A to IC50 for human MAO-B using Kynuramine as substrate measured by plate reader method
[24] = target: T2, Amine oxidase [flavin-containing] B; assay: Non-covalent inhibition of human MAO-B using Kynuramine as substrate measured upto 60 mins by plate reader method; settings: 1 h
[25] = target: T2, Amine oxidase [flavin-containing] B; assay: Reversible inhibition of human MAO-B using Kynuramine as substrate at pH 7 measured after 30 mins by plate reader method; settings: pH 7, 0.5 h
[26] = target: T2, Amine oxidase [flavin-containing] B; assay: Mixed inhibition of human MAO-B assessed as increase of Km with decrease of Vmax using Kynuramine at 0.3 to 2 uM measured after 30 mins by plate reader method; settings: 0.5 h, dose 0.3-2 µM
[27] = target: T2, Amine oxidase [flavin-containing] B; assay: Mixed inhibition of human MAO-B using Kynuramine as substrate measured upto 60 mins by plate reader method; settings: 1 h
[28] = target: T2, Amine oxidase [flavin-containing] B; assay: Competitive inhibition of human MAO-B assessed as increase of Km with constant Vmax using Kynuramine at 0.05 to 0.2 uM measured after 30 mins by plate reader method; settings: 0.5 h, dose 0.05-0.2 µM
[29] = Anti-inflammatory activity in mouse SIM-A9 cells assessed as decrease in LPS-induced IL-6 production at 1 ug/ml preincubated for 1 hr followed by stimulation with LPS and measured after 23 hrs by ELISA assay; format: functional; design: scale not given: the % may be the effect or the level left; settings: dose 1 µg/ml; time 24 hrs
[30] = Anti-inflammatory activity in mouse SIM-A9 cells assessed as decrease in LPS-induced TNF-alpha production at 1 ug/ml preincubated for 1 hr followed by stimulation with LPS and measured after 23 hrs by ELISA assay; format: functional; design: scale not given: the % may be the effect or the level left; settings: dose 1 µg/ml; time 24 hrs

| inhibition [1] [%] | Papp at 6 h [2] [×10⁻⁶ cm/s] | IC50 [22] [µM] | IC50 [23] [µM] | Selectivity Index (Homo sapiens) | Compound | IC50 (SH-SY5Y) [µM] | IC50 [3] [µM] | MNTD [4] [µM] | also measured |
| --- | --- | --- | --- | --- | --- | --- | --- | --- | --- |
| 67.4 | 18.5 | 6.64 | 8.62 | 0.77 | C#CCN(C)C1=CC(=O)c2ccccc2C1=O | 22 | 36.1 | 8 | – |
| 24 | 20.8 | 9.81 | 0.27 | 36 | C#CCNC1=CC(=O)c2ccccc2C1=O | > 64 | 34.6 | 4 | inhibition (INH) [24]: Active; inhibition (INH) [25]: Active; inhibition (INH) [26]: Active |
| 15.5 | 18.8 | – | – | – | C#CCNC1=CC(=O)c2cccc(OC)c2C1=O | > 32 | 116 | 8 | – |
| 11.2 | 18.5 | – | – | – | C#CCNC1=CC(=O)c2cccc(OCC)c2C1=O | > 64 | > 64 | 32 | – |
| – | 0.04 | – | – | – | CNC(=C[N+](=O)[O-])NCCSCc1ccc(CN(C)C)o1 [RANITIDINE] | – | – | – | – |

Second part, the molecule before the results:

| Compound | inhibition [1] [%] | Papp at 6 h [2] [×10⁻⁶ cm/s] | IC50 [22] [µM] | IC50 [23] [µM] | Selectivity Index (Homo sapiens) | IC50 (SH-SY5Y) [µM] | IC50 [3] [µM] | MNTD [4] [µM] | also measured |
| --- | --- | --- | --- | --- | --- | --- | --- | --- | --- |
| C#CCNC1=CC(=O)c2c(O)ccc(O)c2C1=O | 21.7 | 43.3 | – | – | – | 15 | 5.3 | 0.4 | – |
| C[C@H]1c2cccc(O)c2C(=O)C2=C(O)[C@]3(O)C(=O)C(C(N)=O)=C(O)[C@@H](N(C)C)[C@@H]3[C@@H](O)[C@@H]21 | 93.1 | – | – | – | – | – | – | – | – |
| C#CCNC1=CC(=O)c2cccc(OCc3ccccc3)c2C1=O | 17.5 | 25.5 | – | – | – | > 64 | > 32 | 8 | Activity [5]: 49%; Activity [6]: 74%; Activity [7]: 95%; Activity [8]: 46%; Activity [9]: 74%; Activity [10]: 76%; viability at 24 h, 10 µM [11]: 89%; viability at 24 h, 100 µM [12]: 88%; Activity [13]: 89%; Activity [14]: Non-Toxic; Activity [15]: Non-Toxic; Activity [16]: Active; Activity [17]: 15%; Activity [18]: 10%; Activity [19]: Non-Toxic; Activity [20]: Non-Toxic; Activity [21]: Non-Toxic |
| C#CCNC1=C(Cl)C(=O)c2ccccc2C1=O | 18.4 | 29.4 | 7.76 | 0.05 | 155 | 4.6 | 10.4 | 4 | inhibition (INH) [27]: Active; inhibition (INH) [28]: Active; Activity [16]: Active; Activity [17]: Active |
| C[C@@H]1C[C@H]2[C@@H]3CCC4=CC(=O)C=C[C@]4(C)[C@@]3(F)[C@@H](O)C[C@]2(C)[C@@]1(O)C(=O)CO [DEXAMETHASONE] | – | – | – | – | – | – | – | – | Activity [29]: 40%; Activity [30]: 60% |
| C#CCN(C)C1=C(Cl)C(=O)c2ccccc2C1=O | 40.5 | 14 | 10 | 0.14 | 71 | 3.3 | 7.3 | 2 | Activity [16]: Active; Activity [17]: Active; Activity [18]: 5% |
